Legend:
[1] = test system: hMYO-hERG cells; experiment: SetuBlue cell viability (cell proliferation) assay, fluorometric, on hMYO-hERG cells; type: cell-based, human
Protocol: (§1) Ninety-six (96) well plate(s) were seeded with hMYO-hERG cells containing approximately 1×10^4 cells/well. The plates were first incubated for 24 hours at 37° C., 5% CO2, followed by incubation for 48 hours at 28° C., 5% CO2. The wells were then treated with compound(s) of interest for 48 hours at standard cell cultural conditions. A negative control medium without cells was included to determine background signal.
(§2) The cells were then assayed for toxicity using a SetuBlue™ Cell Proliferation Assay Kit (Fluorometric) (BioIntersect, Catalog #F6009-2500-A). This kit uses a Blue indicator dye, Resazurin, to measure the metabolic capacity of cells. Resazurin is a non-fluorescent, cell permeable and non-toxic compound. Viable cells efficiently reduce the Blue indicator dye to resorufin, which is highly fluorescent and an indicator of cell viability.
(§3) The SetuBlue cell proliferation assay was performed as follows. The old media was aspirated and replaced with fresh 100 μl medium containing 10% volume of SetuBlue reagent containing the Blue indicator dye. The plates were incubated using standard cultural conditions for 1-4 hrs. The plates were than shaken for 10-20 seconds before recording fluorescence at 530/590 nm in PerkinElmer EnSpire® multimode plate reader. The relative fluorescence unit (“RFU”) value of each control well was subtracted from all RFU value to yield corrected RFU values. The corrected RFU values at 530/590 nm (Y axis, Log10 scale) were plotted against concentration of test compound (X axis). The CC50 value were determined by locating the X-axis value corresponding to one-half the maximum (plateau) RFU value using GraphPad Prism software.

[2] = as above; type: cell-based, human; conditions: human; hMYO-hERG cells, 48 hours treatment, fluorescence 530/590 nm, GraphPad Prism
Protocol: as §1, §2, §3

[3] = target: hERG (Homo sapiens, UniProt Q12809); conditions: literature statement; cited from earlier work
Sequence of hERG (Q12809 whole entry): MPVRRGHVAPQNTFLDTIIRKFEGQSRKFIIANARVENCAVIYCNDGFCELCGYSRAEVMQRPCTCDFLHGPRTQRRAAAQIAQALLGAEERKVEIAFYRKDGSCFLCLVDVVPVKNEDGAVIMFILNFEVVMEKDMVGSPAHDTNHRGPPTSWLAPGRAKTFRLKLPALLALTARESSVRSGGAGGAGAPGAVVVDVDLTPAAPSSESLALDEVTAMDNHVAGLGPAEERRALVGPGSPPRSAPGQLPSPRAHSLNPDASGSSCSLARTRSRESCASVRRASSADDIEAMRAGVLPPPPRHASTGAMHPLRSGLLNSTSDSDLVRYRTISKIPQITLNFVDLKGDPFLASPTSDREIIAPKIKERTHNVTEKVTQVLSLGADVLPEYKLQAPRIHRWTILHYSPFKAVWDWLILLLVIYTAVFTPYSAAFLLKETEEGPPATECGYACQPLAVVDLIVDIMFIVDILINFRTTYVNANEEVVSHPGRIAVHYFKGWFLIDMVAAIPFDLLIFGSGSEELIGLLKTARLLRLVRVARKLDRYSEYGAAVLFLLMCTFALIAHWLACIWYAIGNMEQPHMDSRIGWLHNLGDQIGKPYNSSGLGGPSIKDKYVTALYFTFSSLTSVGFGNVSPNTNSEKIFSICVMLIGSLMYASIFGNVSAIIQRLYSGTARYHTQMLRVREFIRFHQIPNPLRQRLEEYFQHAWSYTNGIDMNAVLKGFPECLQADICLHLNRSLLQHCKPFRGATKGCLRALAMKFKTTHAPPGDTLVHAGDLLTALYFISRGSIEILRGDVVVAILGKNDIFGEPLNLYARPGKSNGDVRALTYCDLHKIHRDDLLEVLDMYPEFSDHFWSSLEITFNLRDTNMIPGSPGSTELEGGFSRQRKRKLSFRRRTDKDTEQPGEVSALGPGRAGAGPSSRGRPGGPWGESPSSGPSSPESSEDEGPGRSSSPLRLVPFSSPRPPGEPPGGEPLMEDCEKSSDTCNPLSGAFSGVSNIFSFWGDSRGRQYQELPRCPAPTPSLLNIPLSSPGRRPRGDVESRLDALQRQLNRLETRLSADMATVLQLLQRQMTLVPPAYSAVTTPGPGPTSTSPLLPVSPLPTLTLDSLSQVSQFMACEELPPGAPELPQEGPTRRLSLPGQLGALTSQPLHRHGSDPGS

## COc1cccc2c1C(=O)c1c(O)c3c(c(O)c1C2=O)C[C@@](O)(C(=O)CO)C[C@@H]3O[C@H]1C[C@H](N)[C@H](O)[C@H](C)O1 [doxorubicin]
[1]; hMYO-hERG cells, 48 hours treatment, FIG. 12A
  concentrations at which cardiotoxic on the hMYO-hERG cell line: above 50 μM
[2]
  CC50 at 48 h: 42.3 µM
[3]
  cardiotoxicity (known): long-term cardiotoxicity
  hERG inhibitory activity (known): only slight effects on hERG

## C=C[C@H]1C[N@@]2CC[C@H]1C[C@@H]2[C@@H](O)c1ccnc2ccc(OC)cc12 [quinidine]
[1]; at concentrations as high as 400 μM, compared to control vehicle at 400 μM
  cardiotoxicity on the hMYO-hERG cells: not significantly cardiotoxic

— patent US20230235290A1, “RECOMBINANT CARDIOMYOCYTES AND CARDIOMYOCYTE CELL LINES EXPRESSING HERG” (The Governors of the University of Alberta, priority 2016, published 2023)
